Reference: ChEMBL document CHEMBL1201862, “PubChem BioAssay data set” (2004)
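Results reflect a 48-hour exposure of cells in 96-well plates to compound at five concentrations. GI50: concentration for 50% inhibition of growth.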 Activity calls are given as the source filed them. Rule as the data show it: active = GI50 up to about 1.1 µM and inactive = higher.

Legend:
Experiment in all cases: inhibition of tumour cell growth, NCI panel, 48 h
MDA-MB-435 = system: MDA-MB-435
HOP-62 = system: HOP-62
NCI-H460 = system: NCI-H460
SW-620 = system: SW-620
UACC-257 = system: UACC-257
T47D = system: T47D
OVCAR-5 = system: OVCAR-5
LOX IMVI = system: LOX IMVI
IGROV-1 = system: IGROV-1
DU-145 = system: DU-145
M14 = system: M14
PC-3 = system: PC-3
SK-MEL-5 = system: SK-MEL-5
OVCAR-8 = system: OVCAR-8
HCT-116 = system: HCT-116
SF-268 = system: SF-268
CAKI-1 = system: CAKI-1
OVCAR-4 = system: OVCAR-4
EKVX = system: EKVX
SNB-19 = system: SNB-19

Measured: GI50

O=C(CCn1ccnc1[N+](=O)[O-])NCCCn1ccnc1[N+](=O)[O-]
inactive: MDA-MB-435 > 100 µM | HOP-62 > 100 µM | NCI-H460 > 100 µM | SW-620 > 100 µM | UACC-257 > 100 µM | T47D > 100 µM | OVCAR-5 > 100 µM | LOX IMVI > 100 µM | IGROV-1 > 100 µM | DU-145 > 100 µM | M14 > 100 µM | PC-3 > 100 µM | SK-MEL-5 > 100 µM | OVCAR-8 > 100 µM | HCT-116 > 100 µM | SF-268 > 100 µM | CAKI-1 > 100 µM | OVCAR-4 > 100 µM | EKVX > 100 µM

Cc1ccccc1C1CC(=O)CC(c2ccccc2C)C12C(=O)NC(=S)NC2=O (stereo not given)
inactive: MDA-MB-435 20 µM | HOP-62 27.5 µM | NCI-H460 19.4 µM | SW-620 28.5 µM | UACC-257 22 µM | T47D 42.1 µM | OVCAR-5 50.1 µM | LOX IMVI 17.2 µM | DU-145 41.7 µM | SNB-19 43.4 µM | M14 24.3 µM | PC-3 22.3 µM | SK-MEL-5 17.2 µM | HCT-116 20.5 µM | SF-268 32.7 µM | CAKI-1 58.2 µM | OVCAR-4 37.5 µM | EKVX 47.2 µM

CC1(C)C2CC(O)C1CCC2=O (stereo not given)
inactive: MDA-MB-435 > 100 µM | HOP-62 > 100 µM | NCI-H460 > 100 µM | UACC-257 > 100 µM | T47D > 100 µM | OVCAR-5 > 100 µM | LOX IMVI > 100 µM | DU-145 > 100 µM | SNB-19 > 100 µM | M14 > 100 µM | PC-3 > 100 µM | SK-MEL-5 > 100 µM | OVCAR-8 > 100 µM | HCT-116 > 100 µM | SF-268 > 100 µM | CAKI-1 > 100 µM | OVCAR-4 > 100 µM

Cc1ccc(C(CCO)CCO)nc1
inactive: MDA-MB-435 > 100 µM | HOP-62 > 100 µM | NCI-H460 > 100 µM | SW-620 > 100 µM | UACC-257 > 100 µM | T47D > 100 µM | OVCAR-5 > 100 µM | LOX IMVI > 100 µM | DU-145 > 100 µM | SNB-19 > 100 µM | M14 > 100 µM | PC-3 > 100 µM | SK-MEL-5 > 100 µM | OVCAR-8 > 100 µM | HCT-116 > 100 µM | SF-268 > 100 µM | CAKI-1 > 100 µM | OVCAR-4 > 100 µM | EKVX > 100 µM

CCCC(=O)Nc1cc(/C=C/C(=O)N2CC(CCl)c3ccc([N+](=O)[O-])cc32)n(C)c1 (stereo not given)
inactive: MDA-MB-435 > 100 µM | SW-620 > 100 µM | UACC-257 > 100 µM | T47D 70 µM | OVCAR-5 > 100 µM | LOX IMVI 73.5 µM | IGROV-1 65 µM | DU-145 > 100 µM | SNB-19 > 100 µM | M14 > 100 µM | PC-3 > 100 µM | OVCAR-8 30.3 µM | HCT-116 56 µM | SF-268 43.7 µM | CAKI-1 57.5 µM | OVCAR-4 > 100 µM | EKVX > 100 µM

CNc1nc(SC)nc2c1c(N)nn2C
inactive: MDA-MB-435 > 100 µM | HOP-62 > 100 µM | NCI-H460 > 100 µM | SW-620 > 100 µM | UACC-257 > 100 µM | T47D > 100 µM | OVCAR-5 > 100 µM | LOX IMVI > 100 µM | IGROV-1 78 µM | DU-145 > 100 µM | SNB-19 > 100 µM | M14 > 100 µM | PC-3 > 100 µM | SK-MEL-5 > 100 µM | OVCAR-8 > 100 µM | HCT-116 > 100 µM | SF-268 > 100 µM | CAKI-1 > 100 µM | OVCAR-4 > 100 µM

CCOC(=O)c1ccc(Nc2nc3ccccc3nc2-c2cccs2)cc1
inactive: MDA-MB-435 36.9 µM | HOP-62 > 100 µM | NCI-H460 34 µM | SW-620 > 10 µM | UACC-257 39.8 µM | T47D 16.9 µM | OVCAR-5 > 100 µM | LOX IMVI 21.9 µM | IGROV-1 > 100 µM | DU-145 > 100 µM | SNB-19 > 100 µM | PC-3 24.8 µM | SK-MEL-5 98.6 µM | OVCAR-8 93.1 µM | HCT-116 80.5 µM | SF-268 93.5 µM | CAKI-1 21.9 µM | EKVX 35.3 µM

COc1cc(C2S/C(=C/c3ccccc3)C(=O)N2Cc2ccccc2)cc(OC)c1OC (stereo not given)
inactive: MDA-MB-435 25.5 µM | HOP-62 26.2 µM | UACC-257 > 100 µM | T47D 5.07 µM | OVCAR-5 > 100 µM | LOX IMVI 32.1 µM | IGROV-1 42.2 µM | DU-145 47 µM | SNB-19 57.9 µM | M14 33.1 µM | PC-3 28.2 µM | SK-MEL-5 28.2 µM | OVCAR-8 37.6 µM | HCT-116 17.5 µM | SF-268 33.1 µM | CAKI-1 36.8 µM | OVCAR-4 23.2 µM | EKVX 55.6 µM
